Blank lines part the entries; values can stand above or below the molecule they belong to.
Key:
FimA-EF-N81ter = biological target: T1, FimA-EF-N81ter (Dictyostelium discoideum, UniProt P54680); experiment: 1H, […]-HSQC NMR titration; assay type: binding
T1 construct: EF-hand headpiece domain truncated before switch helix H5 (N81ter), residues 1-80; N-terminal 6His-tag with TEV site, tag cleaved; E. coli BL21(DE3)
T1 sequence (P54680 1-80): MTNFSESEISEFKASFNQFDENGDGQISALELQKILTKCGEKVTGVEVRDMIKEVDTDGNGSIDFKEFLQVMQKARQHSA

FimA-EF = biological target: T2, FimA-EF (Dictyostelium discoideum, UniProt P54680); experiment: 1H, […]-HSQC NMR titration (chemical shift changes); assay type: binding; conditions: 25 °C, pH 7.0; Ca2+-bound; site of switch helix H5
T2 construct: EF-hand headpiece domain with switch helix H5, residues 1-93; pET15b, N-terminal 6His-tag with TEV site, tag cleaved; E. coli BL21(DE3)
T2 sequence (P54680 1-93): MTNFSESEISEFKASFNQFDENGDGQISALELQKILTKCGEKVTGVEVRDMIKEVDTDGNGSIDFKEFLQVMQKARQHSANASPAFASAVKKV

[1] = biological target: L-plastin H5 peptide H5 (Homo sapiens) (UniProt P13796); conditions: cited from earlier work
[2] = biological target: T3, FimA-EF-N81ter (EF-hand domain of the Dictyostelium discoideum FimA headpiece, residues 1-80, lacking the H5 … (Dictyostelium discoideum, UniProt P54680 1-80)); experiment: NMR titration; 15N-labelled FimA-EF-N81ter titrated with the H5 peptide, 1H,15N-HSQC, chemical shift changes fitted, fast exchange; 25 °C, 100 mM KCl, 20 mM Bis-Tris pH 7.0, 10 mM DTT; conditions: both partners purified
T3 construct: FimA (fimbrin) of Dictyostelium discoideum, UniProtKB P54680, headpiece truncated by a stop codon at N81: residues 1-80, omits the entire H5 region; Made by site-directed mutagenesis of the synthetic FimA 1-93 gene in pET15b (NdeI/XhoI) with an N-terminal 6His-tag and a TEV site; The methods say the last 12 amino acids are deleted, but 1-80 of 1-93 removes 13; also called …
T3 sequence (looked up): T1 sequence (P54680 1-80)

Kd (FimA-EF-N81ter): 1.5 µM
Molecule: CN1CCN(CCCN2c3ccccc3Sc3ccc(C(F)(F)F)cc32)CC1 [TFP]
1H,15N-HSQC NMR titration (chemical shift changes) (FimA-EF): Both TFP and W7 caused significant chemical shift changes in the HSQC spectrum of FimA-EF

Kd (FimA-EF-N81ter): 3.8 µM
Molecule: NCCCCCCNS(=O)(=O)c1cccc2c(Cl)cccc12 [W7]
1H,15N-HSQC NMR titration (chemical shift changes) (FimA-EF): Both TFP and W7 caused significant chemical shift changes in the HSQC spectrum of FimA-EF

Molecule: L-plastin EF-hand domain (from UniProt P13796)
Kd [1]: 3.5 µM

B1: H5 peptide (14-residue synthetic peptide encompassing the H5 / putative regulatory switch-helix region of FimA) (peptide)
peptide: Ac-SANASPAFASAVKK-NH2
notes: Stretch of FimA of Dictyostelium discoideum (UniProtKB P54680) encompassing the putative regulatory domain (H5); Limits worked out from the printed positions N81, P84 and F86; also called synthetic H5 peptide; source: synthetic peptide, obtained from Genscript (purity over 95%)
Kd [2]: 300 µM
